≈ marks a conversion by molar mass, not a printed value. Calls of active or inactive are those of the source. No cut-off for these calls is given here.
Legend:
[1] = system: Escherichia coli; test: Antibacterial activity against Escherichia coli ATCC 25922; format: functional
[2] = system: Enterococcus faecalis; test: Antibacterial activity against vancomycin-resistant Enterococcus faecalis ATCC51299 assessed as reduction in bacterial growth incubated for 24 hrs by CLSI protocol based assay; format: functional
[3] = system: Enterococcus faecalis; test: Antibacterial activity against Enterococcus faecalis ATCC29212 assessed as reduction in bacterial growth incubated for 24 hrs by CLSI protocol based assay; format: functional
[4] = system: Staphylococcus aureus; test: Antibacterial activity against Staphylococcus aureus ATCC29213 assessed as reduction in bacterial growth incubated for 24 hrs by CLSI protocol based assay; format: functional
[5] = system: Escherichia coli; test: Antibacterial activity against Escherichia coli ATCC 25922 assessed as reduction in bacterial growth incubated for 24 hrs by CLSI protocol based assay; format: functional
[6] = system: Staphylococcus aureus; test: Antibacterial activity against methicillin-resistant Staphylococcus aureus 21-5 assessed as reduction in bacterial growth incubated for 24 hrs by CLSI protocol based assay; format: functional
[7] = system: Streptococcus mutans; test: Antibacterial activity against Streptococcus mutans by CLSI protocol based assay; format: functional
[8] = system: Streptococcus mutans; test: Bactericidal activity against Streptococcus mutans by CLSI protocol based assay; format: functional
[9] = system: Enterococcus faecalis; test: Antibacterial activity against Enterococcus faecalis assessed as decrease in bacterial growth measured after 16 to 18 hrs in presence of peptidoglycan; format: functional, organism-based; conditions: time 16-18 hrs
[10] = system: Enterococcus faecalis; test: Antibacterial activity against Enterococcus faecalis assessed as decrease in bacterial growth measured after 16 to 18 hrs in presence of cardiolipin; format: functional, organism-based; conditions: time 16-18 hrs
[11] = system: Enterococcus faecalis; test: Antibacterial activity against Enterococcus faecalis assessed as decrease in bacterial growth measured after 16 to 18 hrs in presence of phosphatidylethanolamine; format: functional, organism-based; conditions: time 16-18 hrs
[12] = system: Cell membrane; test: Disruption of membrane integrity in […] Enterococcus faecalis ATCC29212 assessed as appearance of shrunken cell surface at 2.0 ug/ml incubated for 2 hrs by SEM analysis; format: cell membranes; conditions: dose 2.0 µg/ml
[13] = system: Cell membrane; test: Disruption of membrane integrity in […] Enterococcus faecalis ATCC29212 assessed as appearance of wrinkled cell surface at 2.0 ug/ml incubated for 2 hrs by SEM analysis; format: cell membranes; conditions: dose 2.0 µg/ml
[14] = system: Cell membrane; test: Disruption of membrane integrity in Enterococcus faecalis ATCC29212 assessed as increase in red fluorescence at 8 times MIC incubated for 2 hrs by EthD-III dye based fluorescence microscopic analysis
[15] = system: Enterococcus faecalis; test: Antibacterial activity against Enterococcus faecalis assessed as decrease in bacterial growth measured after 16 to 18 hrs in presence of phosphatidylglycerol; format: functional, organism-based; conditions: time 16-18 hrs
[16] = system: Cell membrane; test: Disruption of membrane integrity in Enterococcus faecalis ATCC29212 assessed as increase in green fluorescence at 8 times MIC incubated for 2 hrs by NucGreen dye based fluorescence microscopic analysis; format: cell membranes
[17] = system: Escherichia coli; test: Antibacterial activity against Escherichia coli ATCC 25922 in presence of polymyxin B nonapeptide; format: functional
[18] = system: Cell membrane; test: Disruption of membrane integrity in […] Enterococcus faecalis ATCC29212 assessed as appearance of ruptured cell surface at 2.0 ug/ml incubated for 2 hrs by SEM analysis; format: cell membranes; conditions: dose 2.0 µg/ml

Row | SMILES | MIC [2] [µg/mL] | MIC [3] [µg/mL] | MIC [4] [µg/mL] | MIC [5] [µg/mL] | MIC [6] [µg/mL] | also measured
1 | CC(C)C[C@@H]1NC(=O)[C@@H](Cc2ccccc2)NC(=O)[C@H](CCN)NC(=O)[C@@H](NC(=O)[C@H](CCN)NC(=O)[C@@H](N)[C@@H](C)O)CCNC(=O)C([C@@H](C)O)NC(=O)[C@H](CCN)NC(=O)[C@H](CCN)NC1=O (stereo partly drawn) |  |  |  |  |  | MIC [1]: > 128 µg/mL
2 | COc1ccc([C@@H]2CC(=O)c3c(O)c4c(c(CC=C(C)C)c3O2)OC(C)(C)C=C4)c(O)c1 [KHONKLONGINOL H] | 4 (≈ 9.16 µM) | 1 (≈ 2.29 µM) | 2 (≈ 4.58 µM) | > 128 | 4 (≈ 9.16 µM) | 
3 | CC(C)=CCc1c2c(c(O)c3c1O[C@H](c1ccc(O)cc1O)CC3=O)C=CC(C)(C)O2 [FLEMICHIN D] | 0.5 (≈ 1.18 µM) | 0.5 (≈ 1.18 µM) | 0.5 (≈ 1.18 µM) | > 128 | 0.5 (≈ 1.18 µM) | 
4 | CC(C)=CCc1c2c(c(O)c3c1O[C@H](c1ccc(O)cc1)CC3=O)C=CC(C)(C)O2 [LUPINIFOLIN] | 1 (≈ 2.46 µM) | 0.5 (≈ 1.23 µM) | 2 (≈ 4.92 µM) | > 128 | 2 (≈ 4.92 µM) | MIC [7]: 0.25 µg/mL (≈ 0.615 µM); MBC [8]: 0.5 µg/mL (≈ 1.23 µM)
5 | CC(C)=CCc1c2c(c(O)c3c1O[C@H](c1ccccc1)CC3=O)C=CC(C)(C)O2 | > 128 | > 128 | > 128 | > 128 | > 128 | 
6 | CC1(C)S[C@@H]2[C@H](NC(=O)[C@H](N)c3ccccc3)C(=O)N2[C@H]1C(=O)O [AMPICILLIN] |  | 0.5 (≈ 1.43 µM) | 0.5 (≈ 1.43 µM) | 8 (≈ 22.9 µM) | 32 (≈ 91.6 µM) | 
7 | CC(C)=CCc1c(O)c2c(c3c1OC(C)(C)C=C3)OC(c1ccc(O)cc1O)CC2=O (stereo not drawn) | 0.5 (≈ 1.18 µM) | 0.25 (≈ 0.592 µM) | 0.25 (≈ 0.592 µM) | > 128 | 0.25 (≈ 0.592 µM) | Activity [9]: inactive; MIC [1]: > 128 µg/mL; Activity [10]: Active; Activity [11]: inactive; Activity [12]: Active; Activity [13]: Active; Activity [14]: Active; Activity [15]: Active; Activity [16]: Active; MIC [17]: 2 µg/mL; Activity [18]: Active
8 | CC(C)=CCc1c2c(c(O)c3c1O[C@H](c1ccccc1O)CC3=O)C=CC(C)(C)O2 [MINIMIFLORIN] | 1 (≈ 2.46 µM) | 0.5 (≈ 1.23 µM) | 2 (≈ 4.92 µM) | > 128 | 2 (≈ 4.92 µM) | 

— ChEMBL document CHEMBL5620434, “Total Synthesis and Antibacterial Evaluation of Lupinifolin and Its Natural Analogues” (2024)
